Data from patent US20240189264A1 (priority 2024, published 2024).

C-reactive protein (CRP) level (in words) (patients taking atenolol single dose): significantly high
SMILES: CC(C)NCC(O)COc1ccc(CC(N)=O)cc1 (centres unmarked) [Atenolol]
response of hypertensive patients to atenolol (single dose of 100 mg atenolol, oral administration): mostly respond
